Measurements as given in US4879311A, “Derivatives of benzoyloxyacetic acid, and preparation and formulations thereof for therapeutic use” (Inverni della Beffa S.p.A., priority 1987, dated 1989).
Read-outs that look alike come from different tables or passages of the source.

Key:
[1] = system: writhing induced by phenylquinone; assay: phenylquinone writhing test, oral administration; assay type: in vivo, mouse; details: oral
Method: (§1) The anti-inflammatory and analgesic activity of compound Ib was tested after oral administration in the carrageenin oedema test in the rat (C. A. Winter et al. Proc. Soc. Exp. Biol. Med., 111, 544, 1962), in the phenylquinone writhing test (I. C. Hendershot and J. J. Forsaith, Pharmacol. Exp. Ther., 125, 237, 1959) and in the hot plate test on the mouse (N. B. Eddy and D. J. Leimbach, J. Pharmacol. Exp. Ther., 107, 385, 1953). The activity of the compound was compared with equimolecular doses of sodium meclofenamate. A comparison was also made between the acute toxicity of the two substances by measuring the oral LD 50 on the rat.
The substances under test were administered by a stomach probe 1 hour before intraperitoneal injection of phenylquinone (2 mg/kg). The abdominal contractions of the treated animals and the controls were counted during every 10 minutes for half an hour.

[2] = system: reaction time to heat (hot plate); assay type: in vivo, mouse; details: oral; for Percentages of mice protected at 30 minutes / Percentages of mice protected at 60 minutes: reaction time 15 seconds or more, 55° C.
Method: as §1
The substances under test were administered by a stomach probe to preselected mice. The controls and the treated animals were placed on the hot plate (55° C.) one at a time immediately after treatment. The reaction time to heat, was measured 30 and 60 minutes after treatment. Animals were considered protected when the reaction time was 15 seconds or more.

rat = assay: acute toxicity on the rat, oral LD50; assay type: in vivo; details: oral LD50, probit method
Method: as §1
(§2) The two LD 50 values were calculated by the probit method.

[3] = acute toxicity on the rat, oral LD50; assay type: in vivo; details: rat, in vivo, po
Method: as §1, §2

arachidonic acid oedema = arachidonic acid oedema in the rat, oral administration; assay type: in vivo; details: for change of Increase of Original Volume (in parentheses), 60 min: vs controls
Method: (1) Arachidonic acid oedema in the rat (M. J. Di Martino, G. C. Campbell Jnr., C. E. Wolff and N. Hanna, Agents and Actions; 21, 303, 1987)
Compound Ib was administered by gastric probe one hour before subplantar injection of 0.1 ml of 0.5% arachidonic acid in carbonate buffer (pH 8-8.2).
The volume of the paws of the treated animals and of the control was measured with a plethysmometer immediately and 60 minutes after the irritating agent (peak time of oedema).

carrageenin oedema = carrageenin oedema test in the rat, oral administration; assay type: in vivo; details: rat, oral; for % change of increase of original volume, 1 h / % change of increase of original volume, 2 h / % change of increase of original volume, 3 h / % change of increase of original volume, 4 h / % change of increase of original volume, 5 h: vs controls
Method: as §1
The substances under test, dissolved in distilled water, were administered by a stomach probe 1 hour before subplantar injection of carrageenin (1% in sterile 0.9% NaCl aqueous solution). […]

pH of aqueous solution = assay type: physicochemical; details: 1% aqueous solution (Ib)
[4] = system: 6-day old air pouch irritated by carrageenan; assay: irritation of 6-day old air pouch by carrageenan in the rat; assay type: in vivo; details: os
Method: (2) Irritation of 6-day old air pouch by carrageenan in the rat (A. D. Sedgwick, Y. M. Sin, A. R. Mackay, A. Al-Duaij and D. A. Willoughby; J. Pharm. Pharmacol.; 36, 171, 1984).
The formation of a dorsal pouch was induced in the rat by dorsal subcutaneous administration of 20 ml of air. 10 ml of air were then injected every day for three consecutive days in order to keep the cavity permeable. Six days after the first injection of air, the dorsal pouch in the animals was treated with 1 ml of 1% carrageenan in physiological solution.
Compound Ib was administered by gastric probe, 24 hours and 1 hour before administration of the irritating agent.
The animals, dividedinto groups of five, were killed 4 hours and 24 hours after the carrageenan. The volume of the exudate and the total number of leucocytes were measured.

[5] = Ib 12.7 mg/kg, sodium meclofenamate 11.0 mg/kg
[6] = Ib 25.4 mg/kg, sodium meclofenamate 22.0 mg/kg
[7] = dose corresponding to 10 mg/kg meclofenamic acid (Ib 12.7 mg/kg; sodium meclofenamate 11.0 mg/kg)
[8] = dose corresponding to 10 mg/kg meclofenamic acid (Ib 12.7 mg/kg; sodium meclofenamate 11.0 mg/kg), **P < 0.01 vs controls
[9] = dose corresponding to 20 mg/kg meclofenamic acid (Ib 25.4 mg/kg; sodium meclofenamate 22.0 mg/kg), **P < 0.01 vs controls
[10] = Ib 12.7 mg/kg, sodium meclofenamate 11 mg/kg
[11] = Ib 25.4 mg/kg, sodium meclofenamate 22 mg/kg
[12] = dose corresponding to 10 mg/kg meclofenamic acid
[13] = dose corresponding to 20 mg/kg meclofenamic acid (Ib 25,4 mg/kg; sodium meclofenamate 22,0 mg/kg), **P < 0.01 vs controls
[14] = dose corresponding to 20 mg/kg meclofenamic acid
[15] = Ib 31.75 mg/kg × 2 (**P < 0.01), sodium meclofenamate 27.5 mg/kg × 2 (*P < 0.05 vs controls), 24 h
[16] = Ib 31.75 mg/kg × 2, sodium meclofenamate 27.5 mg/kg × 2, 4 h, vs controls
[17] = Ib 31.75 mg/kg × 2, sodium meclofenamate 27.5 mg/kg × 2, 24 h, vs controls

Cc1ccc(Cl)c(Nc2ccccc2C(=O)O)c1Cl [Sodium meclofenamate, sodium meclofenamate, reference compound]
% Protection, 0-10 minutes [1, 5]: 52% | % Protection, 10-20 minutes [1, 5]: 20% | % Protection, 20-30 minutes [1, 5]: 40% | % Protection, total [1, 5]: 43% | % Protection, 0-10 minutes [1, 6]: 60% | % Protection, 10-20 minutes [1, 6]: 33% | % Protection, 20-30 minutes [1, 6]: 46% | % Protection, total [1, 6]: 53% | Writhing (m ± s.e.) during 10-20 minutes [1, 7]: 16.5 ± 1.0 | Writhing (m ± s.e.) during 20-30 minutes [1, 7]: 8.6 ± 0.4 | Writhing (m ± s.e.) during 0-10 minutes [1, 8]: 12.0 ± 1.6 | Writhing (m ± s.e.), total minutes [1, 8]: 34.2 ± 1.5 | Writhing (m ± s.e.) during 10-20 minutes ([1]; dose corresponding to 20 mg/kg meclofenamic acid (Ib 25.4 mg/kg; sodium meclofenamate 22.0 mg/kg)): 13.7 ± 1.5 | Writhing (m ± s.e.) during 0-10 minutes [1, 9]: 10.0 ± 1.1 | Writhing (m ± s.e.) during 20-30 minutes [1, 9]: 7.7 ± 0.8 | Writhing (m ± s.e.), total minutes [1, 9]: 28.0 ± 2.9 | activity in the hot plate test (in words) ([2]; mouse): inactive | Percentages of mice protected at 30 minutes [2, 10]: 0% | Percentages of mice protected at 60 minutes [2, 10]: 0% | Percentages of mice protected at 30 minutes [2, 11]: 0% | Percentages of mice protected at 60 minutes [2, 11]: 0% | Slope (rat): 7.402 ± 2.014 | LD50 at 480 h ([3]; male and female rats, 20 days of observation, probit method, read-out: DL50): 127 mg/kg | LD50 at 480 h ([3]; mg/kg meclofenamic acid, read-out: LD50 as corresponding meclofenamic acid): 119 mg/kg | change of Increase of Original Volume (in parentheses), 60 min (arachidonic acid oedema; [10]): -6 | change of Increase of Original Volume (in parentheses), 60 min (arachidonic acid oedema; Ib 38.1 mg/kg, sodium meclofenamate 33 mg/kg): -29 | Increase of Original Volume (m ± s.e.), 60 min (arachidonic acid oedema; dose corresponding to 10 mg/kg meclofenamic acid (Ib 12.7 mg/kg; sodium meclofenamate 11 mg/kg)): 0.58 ± 0.05 | Increase of Original Volume (m ± s.e.), 60 min (arachidonic acid oedema; dose corresponding to 30 mg/kg meclofenamic acid (Ib 38.1 mg/kg, **P < 0.01; sodium meclofenamate 33 mg/kg, *P < 0.05 vs controls)): 0.44 ± 0.06 | statistically significant dose as fraction of the LD50 (arachidonic acid oedema; rat, oedema reduced in statistically significant manner): 1/4 | Increase of original volume (m ± s.e.), 1 h (carrageenin oedema; [7]): 0.41 ± 0.05 mL | Increase of original volume (m ± s.e.), 2 h (carrageenin oedema; [7]): 0.87 ± 0.10 mL | Increase of original volume (m ± s.e.), 3 h (carrageenin oedema; [7]): 1.42 ± 0.10 mL | Increase of original volume (m ± s.e.), 4 h (carrageenin oedema; [7]): 1.12 ± 0.07 mL | Increase of original volume (m ± s.e.), 5 h (carrageenin oedema; [7]): 1.39 ± 0.08 mL | % change of increase of original volume, 1 h (carrageenin oedema; [12]): -13% | % change of increase of original volume, 2 h (carrageenin oedema; [12]): -8% | % change of increase of original volume, 3 h (carrageenin oedema; [12]): -7% | % change of increase of original volume, 4 h (carrageenin oedema; [12]): -6% | % change of increase of original volume, 5 h (carrageenin oedema; [12]): -10% | Increase of original volume (m ± s.e.), 1 h (carrageenin oedema; dose corresponding to 20 mg/kg meclofenamic acid (Ib 25,4 mg/kg; sodium meclofenamate 22,0 mg/kg)): 0.36 ± 0.05 mL | Increase of original volume (m ± s.e.), 2 h (carrageenin oedema; dose corresponding to 20 mg/kg meclofenamic acid (Ib 25,4 mg/kg; sodium meclofenamate 22,0 mg/kg), *P < 0.05): 0.65 ± 0.05 mL | Increase of original volume (m ± s.e.), 3 h (carrageenin oedema; [13]): 0.77 ± 0.07 mL | Increase of original volume (m ± s.e.), 4 h (carrageenin oedema; [13]): 1.07 ± 0.09 mL | Increase of original volume (m ± s.e.), 5 h (carrageenin oedema; [13]): 1.24 ± 0.07 mL | % change of increase of original volume, 1 h (carrageenin oedema; [14]): -20% | % change of increase of original volume, 2 h (carrageenin oedema; [14]): -32% | % change of increase of original volume, 3 h (carrageenin oedema; [14]): -43% | % change of increase of original volume, 4 h (carrageenin oedema; [14]): -33% | % change of increase of original volume, 5 h (carrageenin oedema; [14]): -25% | anti-inflammatory activity compared with reference (in words) (carrageenin oedema; vs sodium meclofenamate): behaved in similar manner | minimal effective dose (carrageenin oedema; read-out: dose at which antagonism of the oedema is statistically significant): 68 µmol/kg | pH of aqueous solution (in words) (pH of aqueous solution): markedly alkaline pH | Leucocytes (m ± s.e.), 24 h [4, 15]: 40.14 ± 11.99 × 10^6 | Volume of exudate (m ± s.e.), 24 h [4, 15]: 0.52 ± 0.12 mL | Leucocytes (m ± s.e.), 4 h ([4]; Ib 31.75 mg/kg × 2 (*P < 0.05 vs controls), sodium meclofenamate 27.5 mg/kg × 2, 4 h): 4.36 ± 1.76 × 10^6 | change of leucocytes (in parentheses), 4 h [4, 16]: -2 | change of volume of exudate (in parentheses), 4 h [4, 16]: -6 | change of leucocytes (in parentheses), 24 h [4, 17]: -52 | change of volume of exudate (in parentheses), 24 h [4, 17]: -42 | Volume of exudate (m ± s.e.), 4 h ([4]; dose corresponding to 25 mg/kg meclofenamic acid × 2 (Ib 31.75; sodium meclofenamate 27.5 mg/kg), 4 h): 0.30 ± 0.05 mL
